This passage reports IC50 results from PMC3915329 (Journal of Ginseng Research, 2013).

The target of this assay is T1, protein tyrosine phosphatase 1B (PTP1B) (Homo sapiens, UniProt P18031).
T1 sequence (P18031 1-435): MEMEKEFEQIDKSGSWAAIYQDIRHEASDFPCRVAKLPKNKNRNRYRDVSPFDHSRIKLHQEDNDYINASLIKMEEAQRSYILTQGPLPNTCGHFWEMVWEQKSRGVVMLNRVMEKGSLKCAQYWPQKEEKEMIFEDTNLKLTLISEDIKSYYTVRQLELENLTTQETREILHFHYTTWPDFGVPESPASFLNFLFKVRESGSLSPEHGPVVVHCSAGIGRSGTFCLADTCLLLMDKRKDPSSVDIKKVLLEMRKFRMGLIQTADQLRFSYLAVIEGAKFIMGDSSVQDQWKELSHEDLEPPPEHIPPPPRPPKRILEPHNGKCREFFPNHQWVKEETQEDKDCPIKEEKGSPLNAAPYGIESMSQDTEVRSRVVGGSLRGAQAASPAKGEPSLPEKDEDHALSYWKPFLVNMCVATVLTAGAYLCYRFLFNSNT
Briefly: Inhibitory activity against PTP1B assay. The class given is biochemical.
As a reminder, the IC50 is the point on the concentration scale where inhibition reaches its midpoint. A low value points to inhibition by little substance. Regarding `CC(C)=CCC[C@](C)(O[C@@H]1O[C@H](CO[C@@H]2O[C@H](CO)[C@@H](O)[C@H](O)[C@H]2O)[C@@H](O)[C@H](O)[C@H]1O)[C@H]1CC[C@]2(C)[C@@H]1[C@H](O)C[C@@H]1[C@@]3(C)CC[C@H](O[C@@H]4O[C@H](CO)[C@@H](O)[C@H](O)[C@H]4O[C@@H]4O[C@H](CO)[C@@H](O)[C@H](O)[C@H]4O)C(C)(C)[C@@H]3CC[C@]12C` [Compound 5, ginsenoside-Rb1], the IC50 is > 100 µM. With `CC(C)=CCC[C@](C)(O[C@@H]1O[C@H](CO[C@@H]2O[C@@H](CO)[C@H](O)[C@H]2O)[C@@H](O)[C@H](O)[C@H]1O)[C@H]1CC[C@]2(C)[C@@H]1[C@H](O)C[C@@H]1[C@@]3(C)CC[C@H](O[C@@H]4O[C@H](CO)[C@@H](O)[C@H](O)[C@H]4O[C@@H]4O[C@H](CO)[C@@H](O)[C@H](O)[C@H]4O)C(C)(C)[C@@H]3CC[C@]12C` [Compound 8, ginsenoside-Rc], the IC50 was > 100 µM. For `CC(C)=CCC[C@](C)(O[C@@H]1O[C@H](CO)[C@@H](O)[C@H](O)[C@H]1O)[C@H]1CC[C@]2(C)[C@@H]1[C@H](O)C[C@@H]1[C@@]3(C)CC[C@H](O[C@@H]4O[C@H](CO)[C@@H](O)[C@H](O)[C@H]4O[C@@H]4O[C@H](CO)[C@@H](O)[C@H](O)[C@H]4O)C(C)(C)[C@@H]3CC[C@]12C` [Compound 9, ginsenoside-Rd], the half-maximal inhibitory concentration (IC50) was > 100 µM. For the molecule `CC(C)=CCC[C@](C)(O[C@@H]1O[C@H](CO)[C@@H](O)[C@H](O)[C@H]1O)[C@H]1CC[C@]2(C)[C@@H]1[C@H](O)C[C@@H]1[C@@]3(C)CC[C@H](O)C(C)(C)[C@@H]3[C@@H](O)C[C@]12C` [Compound 14, ginsenoside-F1], the half-inhibitory concentration (IC50) was > 100 µM. On to `CC1(C)CCC[C@](C)([C@H]2CC[C@]3(C)[C@@H]2[C@H](O)C[C@@H]2[C@@]4(C)CC[C@H](O)C(C)(C)[C@@H]4CC[C@]23C)O1` [Compound 18, panaxadiol], for which the IC50 is > 100 µM.
